Data on 3 compounds can be found in patent publication US7863281B2, “Bicyclic heterocycles, pharmaceutical compositions containing these compounds, their use and processes for the preparation thereof” (Boehringer Ingelheim Pharma GmbH & Co. KG, priority 2002, dated 2011).

The target of this assay is T1, human EGF-receptor kinase (Homo sapiens, UniProt P00533).
T1 construct: GST; made in house; host or cells: Sf9 insect cells (Baculovirus expression system)
T1 sequence (P00533 688-1210): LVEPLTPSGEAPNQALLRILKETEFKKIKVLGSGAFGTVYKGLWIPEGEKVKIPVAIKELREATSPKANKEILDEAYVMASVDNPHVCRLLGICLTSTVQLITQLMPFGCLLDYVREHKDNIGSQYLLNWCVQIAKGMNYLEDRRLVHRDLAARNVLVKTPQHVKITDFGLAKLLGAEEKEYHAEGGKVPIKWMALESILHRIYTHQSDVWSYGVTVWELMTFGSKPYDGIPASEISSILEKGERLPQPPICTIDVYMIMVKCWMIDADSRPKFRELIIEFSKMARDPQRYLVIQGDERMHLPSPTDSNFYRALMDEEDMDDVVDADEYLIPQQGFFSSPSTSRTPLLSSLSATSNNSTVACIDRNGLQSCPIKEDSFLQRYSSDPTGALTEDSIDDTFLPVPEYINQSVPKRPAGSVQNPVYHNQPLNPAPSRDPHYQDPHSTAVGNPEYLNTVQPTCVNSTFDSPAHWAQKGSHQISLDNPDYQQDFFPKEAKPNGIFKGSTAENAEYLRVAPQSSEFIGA
In words: Inhibition of human EGF-receptor kinase (ELISA, pEY substrate). The class given is biochemical. To be noted: cytoplasmic tyrosine kinase domain (Met664-Ala1186) as GST fusion protein; poly(EY)/bio-pEY substrate; 30 minutes at ambient temperature. The method, then:
The inhibition of human EGF-receptor kinase was determined using the cytoplasmic tyrosine kinase domain (methionine 664 to alanine 1186 based on the sequence published in Nature 309 (1984), 418). For this the protein was expressed in Sf9 insect cells as GST fusion protein using the Baculovirus expression system.
The enzyme activity was measured in the presence or absence of the test compounds in serial dilutions. The polymer pEY (4:1) obtained from SIGMA was used as the substrate. Biotinylated pEY (bio-pEY) was added as the tracer substrate. 100 μl of reaction solution contained 10 μl of the inhibitor in 50% DMSO, 20 μl of the substrate solution (200 mM HEPES pH 7.4, 50 mM magnesium acetate, 2.5 mg/ml poly(EY), 5 μg/ml bio-pEY) and 20 μl of enzyme preparation. The enzyme reaction was started by the addition of 50 μl of a 100 μM ATP solution in 10 mM of magnesium chloride. The dilution of the enzyme preparation was adjusted so that the incorporation of phosphate in the bio-pEY was linear in terms of time and quantity of enzyme. The enzyme preparation was diluted in 20 mM HEPES pH 7.4, 1 mM EDTA, 130 mM common salt, 0.05% Triton X-100, 1 mM DTT and 10% glycerol.
The enzyme assays were carried out at ambient temperature over a period of 30 minutes and ended by the addition of 50 μl of a stopping solution (250 mM EDTA in 20 mM HEPES pH 7.4). 100 μl were placed on a streptavidin-coated microtitre plate and incubated for 60 minutes at ambient temperature. Then the plate was washed with 200 μl of a wash solution (50 mM Tris, 0.05% Tween 20). After the addition of 100 μl of an HRPO-labelled anti-PY antibody (PY20H Anti-PTyr:HRP made by Transduction Laboratories, 250 ng/ml) the preparation was incubated for 60 minutes. Then the microtitre plate was washed three times with 200 μl of wash solution. The samples were then combined with 100 μl of a TMB-peroxidase solution (A:B=1:1, Kirkegaard Perry Laboratories). After 10 minutes the reaction was stopped. The extinction was measured at OD450nm with an ELISA reader. All the results were measured three times. […]
What is called IC50 is the point on the concentration scale where inhibition reaches its midpoint. A low value points to greater potency in that assay. Take `O=C(/C=C/CN1C[C@@H]2C[C@H]1CO2)Nc1cc2c(Nc3ccc(F)c(Cl)c3)ncnc2cc1OCC1CC1` [Example 1, 4-[(3-chloro-4-fluoro-phenyl)amino]-6-{[4-((1S,4S)-2-oxa-5-aza-bicyclo[2.2.1]hept-5-yl)-1-oxo-2-buten-1-yl]amino}-7-cyclopropylmethoxy-quinazoline]: the IC50 worked out at 1.5 nM. The value for `O=C(/C=C/CN1C[C@H]2C[C@@H]1CO2)Nc1cc2c(Nc3ccc(F)c(Cl)c3)ncnc2cc1O[C@H]1CCOC1` [Example 2(2), 4-[(3-chloro-4-fluoro-phenyl)amino]-6-{[4-((1R,4R)-2-oxa-5-aza-bicyclo[2.2.1]hept-5-yl)-1-oxo-2-buten-1-yl]amino}-7-[(S)-(tetrahydrofuran-3-yl)oxy]-quinazoline] was 0.5 nM.

With `O=C(/C=C/CN1CC2CCC(C1)O2)Nc1cc2c(Nc3ccc(F)c(Cl)c3)ncnc2cc1O[C@H]1CCOC1` [Example 2(3), 4-[(3-chloro-4-fluoro-phenyl)amino]-6-{[4-(8-oxa-3-aza-bicyclo[3.2.1]oct-3-yl)-1-oxo-2-buten-1-yl]amino}-7-[(S)-(tetrahydrofuran-3-yl)oxy]-quinazoline], the IC50 is 2 nM.
